Results published in publication PMC8185074, “Anchor extension: a structure-guided approach to design cyclic peptides targeting enzyme active sites” (Nature Communications, 2021).
Values joined by “and” are separate entries in the source; they are usually repeats but may differ in a detail not shown here. Identical values can stand only once. Peptide text beside a SMILES is read from it.

Key:
Assay type in all cases: biochemical
HDAC1 = target: T1, HDAC1 (Homo sapiens, UniProt Q13547); assay: HDAC1 inhibition, full IC50 measurement (Reaction Biology; fluorogenic p53 peptide RHKK(Ac)AMC); settings: t1/t2 replicates
T1 construct: purchased Reaction Biology Corporation (assay run by the CRO)
T1 sequence (Q13547 whole entry): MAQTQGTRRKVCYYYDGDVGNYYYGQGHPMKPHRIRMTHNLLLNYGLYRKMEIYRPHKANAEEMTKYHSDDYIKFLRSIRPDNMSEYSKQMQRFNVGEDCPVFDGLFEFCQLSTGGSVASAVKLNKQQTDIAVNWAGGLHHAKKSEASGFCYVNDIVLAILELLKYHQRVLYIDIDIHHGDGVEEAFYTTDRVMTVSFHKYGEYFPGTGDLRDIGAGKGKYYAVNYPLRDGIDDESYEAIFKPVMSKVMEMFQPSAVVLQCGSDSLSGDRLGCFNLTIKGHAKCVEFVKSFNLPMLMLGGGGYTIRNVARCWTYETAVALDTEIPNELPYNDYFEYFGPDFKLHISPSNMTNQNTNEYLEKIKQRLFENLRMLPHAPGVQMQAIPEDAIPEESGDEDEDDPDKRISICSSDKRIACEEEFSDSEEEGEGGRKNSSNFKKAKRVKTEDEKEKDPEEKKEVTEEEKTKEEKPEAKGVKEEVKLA
Summary of the method: (§1)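 The reaction was a 1 h, 30 °C incubation of enzyme, acoustically added peptide and 50 μM p53-derived AMC substrate in pH 8.0 Tris buffer with NaCl, KCl, MgCl2, 1 mg/ml BSA and 1% DMSO. Duplicate values were averaged.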

HDAC6 = target: T2, HDAC6 (Homo sapiens, UniProt Q9UBN7); assay: HDAC6 inhibition, full IC50 measurement (Reaction Biology; fluorogenic p53 peptide RHKK(Ac)AMC)
T2 construct: purchased Reaction Biology Corporation (assay run by the CRO)
T2 sequence (Q9UBN7 1-1215): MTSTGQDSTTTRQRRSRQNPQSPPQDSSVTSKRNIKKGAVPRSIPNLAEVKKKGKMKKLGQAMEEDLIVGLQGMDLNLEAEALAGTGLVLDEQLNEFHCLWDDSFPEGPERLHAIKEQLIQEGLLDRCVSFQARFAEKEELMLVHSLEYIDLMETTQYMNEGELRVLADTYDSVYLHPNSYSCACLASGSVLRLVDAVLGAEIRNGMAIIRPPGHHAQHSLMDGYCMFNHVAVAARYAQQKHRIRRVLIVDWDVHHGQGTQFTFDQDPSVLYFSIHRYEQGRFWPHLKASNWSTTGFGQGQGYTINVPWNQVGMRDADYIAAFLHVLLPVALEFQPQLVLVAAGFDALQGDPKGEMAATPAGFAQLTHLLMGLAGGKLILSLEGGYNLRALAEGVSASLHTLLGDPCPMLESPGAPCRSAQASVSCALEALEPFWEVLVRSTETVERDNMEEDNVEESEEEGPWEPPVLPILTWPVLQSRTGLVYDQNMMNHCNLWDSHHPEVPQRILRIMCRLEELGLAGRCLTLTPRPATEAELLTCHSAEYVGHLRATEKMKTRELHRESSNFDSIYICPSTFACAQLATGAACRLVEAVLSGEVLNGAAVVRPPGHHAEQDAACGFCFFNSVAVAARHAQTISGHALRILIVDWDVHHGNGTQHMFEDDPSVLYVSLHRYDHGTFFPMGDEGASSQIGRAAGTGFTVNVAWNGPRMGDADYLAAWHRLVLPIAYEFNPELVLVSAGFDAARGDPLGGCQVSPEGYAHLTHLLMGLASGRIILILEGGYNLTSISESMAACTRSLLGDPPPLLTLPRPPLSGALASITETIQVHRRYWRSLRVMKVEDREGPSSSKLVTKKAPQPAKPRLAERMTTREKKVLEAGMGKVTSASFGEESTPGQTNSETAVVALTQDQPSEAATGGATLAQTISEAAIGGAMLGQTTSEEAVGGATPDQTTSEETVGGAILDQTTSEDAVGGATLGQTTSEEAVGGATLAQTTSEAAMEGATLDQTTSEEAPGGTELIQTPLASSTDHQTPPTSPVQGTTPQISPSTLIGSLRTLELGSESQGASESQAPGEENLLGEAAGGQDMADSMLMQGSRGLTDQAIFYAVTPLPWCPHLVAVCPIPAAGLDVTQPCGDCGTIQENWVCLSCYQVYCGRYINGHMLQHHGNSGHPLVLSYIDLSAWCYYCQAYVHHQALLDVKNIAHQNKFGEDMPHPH
Summary of the method: as §1

HDAC8 = target: T3, HDAC8 (Homo sapiens, UniProt Q9BY41); assay: HDAC8 inhibition, full IC50 measurement (Reaction Biology; fluorogenic p53 peptide RHKK(Ac)AMC); settings: t1/t2 replicates
T3 construct: purchased Reaction Biology Corporation (assay run by the CRO)
T3 sequence (Q9BY41 1-377): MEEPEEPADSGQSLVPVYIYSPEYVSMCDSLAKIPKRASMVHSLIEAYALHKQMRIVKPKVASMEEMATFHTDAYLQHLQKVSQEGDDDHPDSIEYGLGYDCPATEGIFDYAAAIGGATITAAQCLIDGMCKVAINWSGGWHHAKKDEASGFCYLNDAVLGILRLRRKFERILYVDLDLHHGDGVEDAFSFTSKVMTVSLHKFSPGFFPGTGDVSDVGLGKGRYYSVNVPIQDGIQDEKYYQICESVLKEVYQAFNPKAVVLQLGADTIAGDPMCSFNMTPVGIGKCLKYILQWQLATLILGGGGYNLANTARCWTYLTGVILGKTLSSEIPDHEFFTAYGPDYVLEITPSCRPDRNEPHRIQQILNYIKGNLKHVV
Summary of the method: as §1

[1] = peptide conc. 1.00E-05 M, listed as des4.3.1_t1
[2] = peptide conc. 1.00E-05 M, listed as des4.3.1_t2
[3] = peptide conc. 1.11E-06 M, listed as des4.3.1_t1
[4] = peptide conc. 1.11E-06 M, listed as des4.3.1_t2
[5] = peptide conc. 1.23E-07 M, listed as des4.3.1_t1
[6] = peptide conc. 1.23E-07 M, listed as des4.3.1_t2
[7] = peptide conc. 1.37E-08 M, listed as des4.3.1_t1
[8] = peptide conc. 1.37E-08 M, listed as des4.3.1_t2
[9] = peptide conc. 1.52E-09 M, listed as des4.3.1_t1
[10] = peptide conc. 1.52E-09 M, listed as des4.3.1_t2
[11] = peptide conc. 3.33E-06 M, listed as des4.3.1_t1
[12] = peptide conc. 3.33E-06 M, listed as des4.3.1_t2
[13] = peptide conc. 3.70E-07 M, listed as des4.3.1_t1
[14] = peptide conc. 3.70E-07 M, listed as des4.3.1_t2
[15] = peptide conc. 4.12E-08 M, listed as des4.3.1_t1
[16] = peptide conc. 4.12E-08 M, listed as des4.3.1_t2
[17] = peptide conc. 4.57E-09 M, listed as des4.3.1_t1
[18] = peptide conc. 4.57E-09 M, listed as des4.3.1_t2
[19] = peptide conc. 5.08E-10 M, listed as des4.3.1_t1
[20] = peptide conc. 5.08E-10 M, listed as des4.3.1_t2

## CCCC[C@H]1NC(=O)[C@H](Cc2ccccc2)NC(=O)[C@H](CCCCCS)NC(=O)[C@@H](CCCNC(=N)N)NC(=O)[C@H](CC(=O)O)NC(=O)[C@@H](CO)NC(=O)[C@@H](C)NC(=O)[C@H](CCCCN)NC1=O [des4.3.1, SHA-Phe-dNle-Lys-dAla-dSer-Asp-dArg] (HELM PEPTIDE1{D.[dR].[O=C([C@H](CCCCCS)N[*:1])[*:2]].F.[CCCC[C@@H](N[*:1])C(=O)[*:2]].K.[dA].[dS]}$PEPTIDE1,PEPTIDE1,1:R1-8:R2$$$V2.0)
HDAC1; [1]
  HDAC1 activity raw data (signal): 61312
HDAC1; [2]
  HDAC1 activity raw data (signal): 56616
HDAC1; [3]
  HDAC1 activity raw data (signal): 524367
HDAC1; [4]
  HDAC1 activity raw data (signal): 474109
HDAC1; [5]
  HDAC1 activity raw data (signal): 1051662
HDAC1; [6]
  HDAC1 activity raw data (signal): 1036587
HDAC1; [7]
  HDAC1 activity raw data (signal): 1215949
HDAC1; [8]
  HDAC1 activity raw data (signal): 1295956
HDAC1; [9]
  HDAC1 activity raw data (signal): 1351214
HDAC1; [10]
  HDAC1 activity raw data (signal): 1240672
HDAC1; [11]
  HDAC1 activity raw data (signal): 212161
HDAC1; [12]
  HDAC1 activity raw data (signal): 198550
HDAC1; [13]
  HDAC1 activity raw data (signal): 878996
HDAC1; [14]
  HDAC1 activity raw data (signal): 808933
HDAC1; [15]
  HDAC1 activity raw data (signal): 1147207
HDAC1; [16]
  HDAC1 activity raw data (signal): 1235202
HDAC1; [17]
  HDAC1 activity raw data (signal): 1224928
HDAC1; [18]
  HDAC1 activity raw data (signal): 1148569
HDAC1; [19]
  HDAC1 activity raw data (signal): 1219331
HDAC1; [20]
  HDAC1 activity raw data (signal): 1171745
HDAC6
  6-Selectivity: fold potency for HDAC6 over HDAC2: 88.2 fold and 88 fold
HDAC6; Conc. 1.00E-05 M, t1
  HDAC6 activity raw data (signal): 5754
HDAC6; Conc. 1.00E-05 M, t2
  HDAC6 activity raw data (signal): 4634
HDAC6; Conc. 1.11E-06 M, t1
  HDAC6 activity raw data (signal): 10293
HDAC6; Conc. 1.11E-06 M, t2
  HDAC6 activity raw data (signal): 17466
HDAC6; Conc. 1.23E-07 M, t1
  HDAC6 activity raw data (signal): 97345
HDAC6; Conc. 1.23E-07 M, t2
  HDAC6 activity raw data (signal): 90888
HDAC6; Conc. 1.37E-08 M, t1
  HDAC6 activity raw data (signal): 307015
HDAC6; Conc. 1.37E-08 M, t2
  HDAC6 activity raw data (signal): 326589
HDAC6; Conc. 1.52E-09 M, t1
  HDAC6 activity raw data (signal): 510826
HDAC6; Conc. 1.52E-09 M, t2
  HDAC6 activity raw data (signal): 490649
HDAC6; Conc. 3.33E-06 M, t1
  HDAC6 activity raw data (signal): 6046
HDAC6; Conc. 3.33E-06 M, t2
  HDAC6 activity raw data (signal): 6920
HDAC6; Conc. 3.70E-07 M, t1
  HDAC6 activity raw data (signal): 48261
HDAC6; Conc. 3.70E-07 M, t2
  HDAC6 activity raw data (signal): 37034
HDAC6; Conc. 4.12E-08 M, t1
  HDAC6 activity raw data (signal): 179198
HDAC6; Conc. 4.12E-08 M, t2
  HDAC6 activity raw data (signal): 202702
HDAC6; Conc. 4.57E-09 M, t1
  HDAC6 activity raw data (signal): 433664
HDAC6; Conc. 4.57E-09 M, t2
  HDAC6 activity raw data (signal): 442171
HDAC6; Conc. 5.08E-10 M, t1
  HDAC6 activity raw data (signal): 531205
HDAC6; Conc. 5.08E-10 M, t2
  HDAC6 activity raw data (signal): 556727
HDAC6; figure legends, Supp. Tables 1 and 8, read-out: HDAC6 IC50
  IC50: 17.1 nM
HDAC8; [1]
  HDAC8 activity raw data (signal): -1078311
HDAC8; [2]
  HDAC8 activity raw data (signal): -204031
HDAC8; [3]
  HDAC8 activity raw data (signal): 952629
HDAC8; [4]
  HDAC8 activity raw data (signal): 3749954
HDAC8; [5]
  HDAC8 activity raw data (signal): 24845816
HDAC8; [6]
  HDAC8 activity raw data (signal): 32510062
HDAC8; [7]
  HDAC8 activity raw data (signal): 71732810
HDAC8; [8]
  HDAC8 activity raw data (signal): 73842492
HDAC8; [9]
  HDAC8 activity raw data (signal): 70954745
HDAC8; [10]
  HDAC8 activity raw data (signal): 80270259
HDAC8; [11]
  HDAC8 activity raw data (signal): 928811
HDAC8; [12]
  HDAC8 activity raw data (signal): 1732618
HDAC8; [13]
  HDAC8 activity raw data (signal): 8410528
HDAC8; [14]
  HDAC8 activity raw data (signal): 10886213
HDAC8; [15]
  HDAC8 activity raw data (signal): 59468141
HDAC8; [16]
  HDAC8 activity raw data (signal): 56999449
HDAC8; [17]
  HDAC8 activity raw data (signal): 79326596
HDAC8; [18]
  HDAC8 activity raw data (signal): 78170432
HDAC8; [19]
  HDAC8 activity raw data (signal): 81559751
HDAC8; [20]
  HDAC8 activity raw data (signal): 84202880
